Active and inactive are the calls of the source. How the calls were made is not given here.
Tested on: CCRIS mutagenicity, Ames/micronucleus/aberration tests
Assay: CCRIS mutagenicity studies
Conditions: Test System: AMES SALMONELLA TYPHIMURIUM
[1] = Strain/Indicator: TA98, Metabolic Activation: HAMSTER, LIVER, S-9, AROCLOR 1254 (10%), Method: PREINCUBATION
[2] = Strain/Indicator: TA98, Metabolic Activation: NONE, Method: PREINCUBATION
[3] = Strain/Indicator: TA98, Metabolic Activation: RAT, LIVER, S-9, AROCLOR 1254 (10%), Method: PREINCUBATION
[4] = Strain/Indicator: TA100, Metabolic Activation: HAMSTER, LIVER, S-9, AROCLOR 1254 (10%), Method: PREINCUBATION
[5] = Strain/Indicator: TA100, Metabolic Activation: NONE, Method: PREINCUBATION
[6] = Strain/Indicator: TA100, Metabolic Activation: RAT, LIVER, S-9, AROCLOR 1254 (10%), Method: PREINCUBATION
[7] = Strain/Indicator: TA1535, Metabolic Activation: HAMSTER, LIVER, S-9, AROCLOR 1254 (10%), Method: PREINCUBATION
[8] = Strain/Indicator: TA1535, Metabolic Activation: NONE, Method: PREINCUBATION
[9] = Strain/Indicator: TA1535, Metabolic Activation: RAT, LIVER, S-9, AROCLOR 1254 (10%), Method: PREINCUBATION
[10] = Strain/Indicator: TA1537, Metabolic Activation: HAMSTER, LIVER, S-9, AROCLOR 1254 (10%), Method: PREINCUBATION
[11] = Strain/Indicator: TA1537, Metabolic Activation: NONE, Method: PREINCUBATION
[12] = Strain/Indicator: TA1537, Metabolic Activation: RAT, LIVER, S-9, AROCLOR 1254 (10%), Method: PREINCUBATION

Row | SMILES | mutagenic call [1] | mutagenic call [2] | mutagenic call [3] | mutagenic call [4] | mutagenic call [5] | mutagenic call [6] | mutagenic call [7] | mutagenic call [8] | mutagenic call [9] | mutagenic call [10] | mutagenic call [11] | mutagenic call [12] | other results
1 | CC(C)(C)C(=O)C1C(=O)c2ccccc2C1=O | inactive; negative | inactive; negative | inactive; negative | inactive; negative | inactive; negative | inactive; negative | inactive; negative | inactive; negative | inactive; negative | inactive; negative | inactive; negative | inactive; negative | –
2 | O=C[C@H](O)[C@@H](O)[C@H](O)CO | – | – | – | – | – | – | – | – | – | – | – | – | mutagenic call (Strain/Indicator: TA97A, Metabolic Activation: NONE, Method: PREINCUBATION): inactive; negative; mutagenic call (Strain/Indicator: TA97A, Metabolic Activation: RAT, LIVER, S-9, AROCLOR 1254, Method: PREINCUBATION): inactive; negative; mutagenic call (Strain/Indicator: TA102, Metabolic Activation: NONE, Method: PREINCUBATION): inactive; negative; mutagenic call (Strain/Indicator: TA102, Metabolic Activation: RAT, LIVER, S-9, AROCLOR 1254, Method: PREINCUBATION): inactive; negative
3 | CC(C)NC(C)C | inactive; negative | inactive; negative | inactive; negative | inactive; negative | inactive; negative | inactive; negative | inactive; negative | inactive; negative | inactive; negative | inactive; negative | inactive; negative | inactive; negative | –
4 | O=NN(CC(=O)O)CC1(O)OCC(O)C(O)C1O (configuration not stated) | – | – | – | – | – | – | – | – | – | – | – | – | mutagenic call (Strain/Indicator: TA98, Metabolic Activation: NONE, Method: STANDARD PLATE): inactive; negative; mutagenic call (Strain/Indicator: TA98, Metabolic Activation: RAT, LIVER, S-9, AROCLOR 1254, Method: PREINCUBATION): inactive; negative; mutagenic call (Strain/Indicator: TA98, Metabolic Activation: RAT, LIVER, S-9, AROCLOR 1254, Method: STANDARD PLATE): inactive; negative; mutagenic call (Strain/Indicator: TA100, Metabolic Activation: NONE, Method: STANDARD PLATE): inactive; negative; mutagenic call (Strain/Indicator: TA100, Metabolic Activation: RAT, LIVER, S-9, AROCLOR 1254, Method: PREINCUBATION): inactive; negative; mutagenic call (Strain/Indicator: TA100, Metabolic Activation: RAT, LIVER, S-9, AROCLOR 1254, Method: STANDARD PLATE): inactive; negative; mutagenic call (Strain/Indicator: TA1535, Metabolic Activation: NONE, Method: STANDARD PLATE): inactive; negative; mutagenic call (Strain/Indicator: TA1535, Metabolic Activation: RAT, LIVER, S-9, AROCLOR 1254, Method: STANDARD PLATE): inactive; negative; mutagenic call (Strain/Indicator: TA1537, Metabolic Activation: NONE, Method: STANDARD PLATE): inactive; negative; mutagenic call (Strain/Indicator: TA1537, Metabolic Activation: RAT, LIVER, S-9, AROCLOR 1254, Method: STANDARD PLATE): inactive; negative; mutagenic call (Strain/Indicator: TA1538, Metabolic Activation: NONE, Method: STANDARD PLATE): inactive; negative; mutagenic call (Strain/Indicator: TA1538, Metabolic Activation: RAT, LIVER, S-9, AROCLOR 1254, Method: STANDARD PLATE): inactive; negative
5 | CCCCCCCC(=O)CCc1ccc(O)c(OC)c1 | – | inactive; negative | – | – | inactive; negative | – | – | inactive; negative | – | – | – | – | mutagenic call (Strain/Indicator: TA98, Metabolic Activation: RAT LIVER S-9, SODIUM PHENOBARBITAL, Method: PREINCUBATION): inactive; negative; mutagenic call (Strain/Indicator: TA100, Metabolic Activation: RAT LIVER S-9, SODIUM PHENOBARBITAL, Method: PREINCUBATION): inactive; negative; mutagenic call (Strain/Indicator: TA1535, Metabolic Activation: RAT LIVER S-9, SODIUM PHENOBARBITAL, Method: PREINCUBATION): inactive; negative; mutagenic call (Strain/Indicator: TA1538, Metabolic Activation: NONE, Method: PREINCUBATION): inactive; negative; mutagenic call (Strain/Indicator: TA1538, Metabolic Activation: RAT LIVER S-9, SODIUM PHENOBARBITAL, Method: PREINCUBATION): inactive; negative
6 | Cc1ccc(C)c(N)c1 | active; positive | inactive; negative | active; positive | active; positive | inactive; negative | inactive; negative | inactive; negative | inactive; negative | inactive; negative | active; positive | – | inactive; negative | mutagenic call (Strain/Indicator: TA97, Metabolic Activation: HAMSTER, LIVER, S-9, AROCLOR 1254 (10%), Method: PREINCUBATION): inactive; negative; mutagenic call (Strain/Indicator: TA97, Metabolic Activation: NONE, Method: PREINCUBATION): inactive; negative; mutagenic call (Strain/Indicator: TA97, Metabolic Activation: RAT, LIVER, S-9, AROCLOR 1254 (10%), Method: PREINCUBATION): inactive; negative

Source: PubChem BioAssay AID1259407 (Chemical Carcinogenesis Research Information System (CCRIS), 2018)
